Assay: gradient 5% acetonitrile 3 min, to 50% in 2 min, to 85% in 15 min, held 3 min, 100 µL/min
Settings: column: Zorbax Extend-C18 2.1 x 50 mm; eluents: water / acetonitrile, 0.1% formic acid
Procedure, shortened: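 Retention times of pure standards were taken from adduct peaks that were selected by computer and manually inspected. Over 3 months, mixtures of ~100 molecules were run by HPLC–quadrupole time-of-flight mass spectrometry in positive and negative ionization mode. The Zorbax Extend-C18 column (2.1 × 50 mm, 1.8 μm) ran at 100 μL/min in water and acetonitrile, each containing 0.1% formic acid, with 40 μL dead volume and 900 μL dwell volume.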

Compared with CCCc1nc(NC(C)c2ccc(OC)c(OC)c2)ncc1C(=O)O (centres undefined), COc1ccc(CNC(=O)Cc2nnc(-c3ccc4ncccc4c3)o2)cc1OC is lower in RP-LC retention time: 750 s for the first, 646 s for the second.

Compared with CN1CCn2cc(S(=O)(=O)NCc3cc(F)cc(F)c3)cc2C1=O, CCCN1CCn2cc(S(=O)(=O)Nc3cc(OC)cc(OC)c3)cc2C1=O is higher in RP-LC retention time: 691 s for the first, 744 s for the second.

Compared with CCN1CCC(N(Cc2ccc3c(c2)OCO3)C(=O)Nc2ccc(OC)cc2)CC1, O=C(Nc1ccc2c(c1)OCO2)N1CCC2(CC1)Nc1cc(F)ccc1-n1cccc12 is higher in RP-LC retention time: 641 s for the first, 1000 s for the second.

Compared with COc1cccc(CN2N=C(C(=O)N3CCC(C)CC3)S(=O)(=O)c3ccc(C)cc32)c1, COc1ccc(S(=O)(=O)N2CCC(n3cnc4ccc(C)cc4c3=O)CC2)cc1OC is higher in RP-LC retention time: 674 s for the first, 827 s for the second.

First: Cn1ncc2c3ccccc3n(CC(=O)N3CCN(c4ccccc4)CC3)c2c1=O
Second: O=C(Cn1c(=O)c2nncn2c2ncccc21)N1CCN(c2cccc(Cl)c2)CC1
The RP-LC retention time of the first is higher: 784 s for the first, 750 s for the second.

First: Cc1cc(C2CCCN2C(=O)Nc2ccc(C)c(Cl)c2)on1 (centres undefined)
Second: Cc1ccc(NC(=O)N2CCC(c3cc(N)on3)CC2)cc1F
The RP-LC retention time of the first is higher: 893 s for the first, 733 s for the second.

First: COc1ccc(NC(=O)C2CCN(S(=O)(=O)c3ccc4c(c3)NC(=O)C(C)O4)CC2)cc1Cl (centres undefined)
Second: COc1ccc(NC(=O)C2CC(=O)N(c3ccc4oc(C)nc4c3)C2)cc1F (centres undefined)
The RP-LC retention time of the first is higher: 853 s for the first, 733 s for the second.

Going from O=S(=O)(c1cc(-c2cc(C(F)(F)F)on2)cs1)N1CCN(c2ccc(Cl)cc2)CC1 to CN1C(=O)CCc2cc(NS(=O)(=O)c3ccccc3C(F)(F)F)ccc21, the RP-LC retention time falls from 1290 s to 779 s.

Compared with CCN1C(=O)c2cc(C(=O)NCc3ccc(N(C)C)cc3)nn2CC1(C)C(=O)NC1CCCC1 (centres undefined), Cc1ccc2nc(C)cc(C(=O)NC3CCCC3)c2c1 is higher in RP-LC retention time: 570 s for the first, 610 s for the second.

First: O=S(=O)(NCc1cccnc1-c1ccc(F)cc1)c1ccc(Cl)cc1
Second: COc1ccc(NS(=O)(=O)c2cccc(-c3nc(-c4ccccc4)no3)c2)cc1
The RP-LC retention time of the first is lower: 799 s for the first, 1100 s for the second.

Compared with Cc1nc2cc(-c3noc(-c4ccc(C#N)cc4F)n3)ccc2o1, CCc1nc2cc(-c3noc(Cc4ccc(C)cc4)n3)ccc2o1 is higher in RP-LC retention time: 1000 s for the first, 1160 s for the second.

Compared with Cc1cnc(C(=O)NC2C[C@H]3CC[C@@H](C2)N3C(=O)CCC2CCCCC2)cn1 (some centres undefined), O=C([C@@H]1C[C@H](Oc2ccccc2)CN1C(=O)CCC1CCCC1)N1CCCC1 is higher in RP-LC retention time: 821 s for the first, 922 s for the second.

First: O=C(c1ccc(F)c(F)c1)N1CCC2(CC1)N=C(c1cccc(Br)c1)NO2
Second: Cc1cc(OCC(=O)N2CCCCC2)nc(-c2ccc(Cl)cc2)n1
The RP-LC retention time of the first is higher: 935 s for the first, 790 s for the second.

First: Cc1ccc(CNC(=O)c2c(C)oc3nc(C)nc(N4CCOCC4)c23)cc1
Second: CC(C)N1CCn2c(nc3cc(C(=O)NCc4ccc5c(c4)OCO5)ccc32)C1=O
The RP-LC retention time of the first is higher: 787 s for the first, 680 s for the second.

Going from CCOC(=O)CNC(=O)NCc1cccn1Cc1ccc(F)cc1 to CCN(CC)CCN1C(=O)c2ccccc2NC1c1ccc(F)cc1 (centres undefined), the RP-LC retention time falls from 772 s to 641 s.

First: O=c1c2cc3c(cc2nc(SCc2nc(-c4ccc(F)cc4)no2)n1CC1CCCO1)OCO3 (centres undefined)
Second: O=C(Nc1ccc2c(c1)OCO2)N1CCC(n2c(-c3ccco3)nc3cccnc32)C1 (centres undefined)
The RP-LC retention time of the first is higher: 1130 s for the first, 726 s for the second.

Compared with O=C(NCC1CCCO1)c1cn(-c2cc(-c3nc(C4CC4)no3)ccn2)cn1 (centres undefined), Cc1c(C(=O)NCC2CC2)cnn1-c1ccc(-c2nc(C3CC3)no2)cn1 is higher in RP-LC retention time: 762 s for the first, 810 s for the second.

Compared with Cc1cc(C(=O)NCc2ccco2)c2cccc(-c3ccccc3)c2n1, O=C(Nc1nc(-c2ccccc2)cs1)c1ccccc1[N+](=O)[O-] is higher in RP-LC retention time: 936 s for the first, 947 s for the second.

First: CC(=O)Nc1ccc(NC(=O)c2nn(-c3ccccc3)c3ccccc3c2=O)cc1
Second: Cc1ccc(NC(=O)NCC(c2cccnc2)c2cn(C)c3ccccc23)cc1F (centres undefined)
The RP-LC retention time of the first is lower: 714 s for the first, 722 s for the second.

Compared with CCCNC(=O)c1cn(-c2ccc(S(=O)(=O)N3CCCC(C)C3)cn2)cn1 (centres undefined), CCCNC(=O)C1CCCN(C(=O)c2cc(C)cc(C)c2)C1 (centres undefined) is lower in RP-LC retention time: 884 s for the first, 746 s for the second.

Compared with CC(C)(C)c1nnc(NC(=O)C2CCN(C(=O)c3ccc(F)cc3)CC2)s1, CCCNC(=O)C1CCN(c2ccc(SCC(=O)Nc3ccc(F)cc3Cl)nn2)CC1 is lower in RP-LC retention time: 776 s for the first, 682 s for the second.

First: Cc1ccc(OCC(=O)Nc2nnc(SCc3nnc(-c4ccccc4)o3)s2)c(C)c1
Second: Cc1ccc(NC(=O)Cc2nnc(-c3cnccn3)o2)cc1F
The RP-LC retention time of the first is higher: 998 s for the first, 714 s for the second.

First: Fc1cc(F)cc(-c2nnc(Cc3nc(-c4ccccc4F)no3)o2)c1
Second: O=c1c2oc3ccccc3c2ncn1Cc1nc(-c2cccc(Cl)c2)no1
The RP-LC retention time of the first is higher: 1060 s for the first, 1010 s for the second.

Compared with COc1ccc(NC(=O)Nc2c(-c3cccc(C)c3)nc3ccccn23)cc1Cl, Oc1cccc(-c2nc3cnccn3c2Nc2ccccc2)c1 is higher in RP-LC retention time: 702 s for the first, 710 s for the second.

Going from O=C(NCCC1CCN(C(=O)Nc2cc(F)cc(F)c2)CC1)c1ccco1 to O=C(Nc1cnc(N2CCCCC2)nc1)c1cc(F)ccc1F, the RP-LC retention time rises from 798 s to 952 s.

Going from Cc1ccc(CNC(=O)CN2C(=O)CCCc3cc(S(=O)(=O)N4CCCCC4)ccc32)cc1 to CN1CCN(CCCNC(=O)C2CCN(S(=O)(=O)c3ccc4c(c3)sc(=O)n4C)CC2)CC1, the RP-LC retention time falls from 891 s to 580 s.

Compared with CCOC(=O)N1CCN(S(=O)(=O)c2cn(C)c(=O)n(C)c2=O)CC1, CCC(C)NC(=O)Cn1ncc2c(c1=O)N(C)C(=O)CS2 (centres undefined) is lower in RP-LC retention time: 621 s for the first, 606 s for the second.

First: Cc1c(C(=O)N2CCN=C2SCc2cccnc2)cccc1[N+](=O)[O-]
Second: COC(=O)Cn1c(C2CC(=O)N(c3cccc(C)c3)C2)nc2ccccc21 (centres undefined)
The RP-LC retention time of the first is lower: 577 s for the first, 758 s for the second.

First: N#Cc1cccc(NC(=O)c2cc(C3CC3)n3nccc3n2)c1
Second: O=C1CCc2cc(NC(=O)c3ccc([N+](=O)[O-])cc3Cl)ccc2N1
The RP-LC retention time of the first is higher: 942 s for the first, 807 s for the second.

First: CCCN(Cc1ccc(OC)cc1)Cc1cc(=O)n2cc(C)ccc2n1
Second: COc1ccc(-c2nnc(N3CCC(C(=O)NC(C)c4ccc(OC)cc4)CC3)o2)cc1 (centres undefined)
The RP-LC retention time of the first is lower: 633 s for the first, 815 s for the second.

Compared with CC(=O)N1CCCC1c1nc(C2CN(C(=O)c3ccsc3)C2)no1 (centres undefined), Cc1noc(C2CN(C(=O)c3ccc4ncsc4c3)C2)n1 is lower in RP-LC retention time: 629 s for the first, 593 s for the second.

Going from Cn1cnnc1C1CCCCN1C(=O)COc1ccc(F)c(F)c1 (centres undefined) to O=C(NCc1ccccc1F)C1CCN(c2cncnc2N2CCCC2)CC1, the RP-LC retention time falls from 682 s to 641 s.

Compared with O=C(NCc1nnnn1C1CCCCC1)c1ccc(Br)o1, O=C(NCC1CCCO1)C1CCCN(c2nccnc2Sc2ccccc2)C1 (centres undefined) is higher in RP-LC retention time: 738 s for the first, 860 s for the second.

Going from O=C(NCc1ccc(F)cc1)C1CCCN(c2nc3ccccc3n(Cc3ccccc3)c2=O)C1 (centres undefined) to COc1ccc(NC(=O)C2CCCN(c3nccnc3Sc3ccccc3)C2)cc1OC (centres undefined), the RP-LC retention time falls from 1140 s to 969 s.

First: O=C(c1nnn2c1COC(c1ccc(Cl)cc1)C2)N1CCN(C(=O)C2(c3ccccc3)CC2)CC1 (centres undefined)
Second: COc1ccc(C2(C(=O)NCC3Cn4cccc4C(=O)N3C)CC2)cc1 (centres undefined)
The RP-LC retention time of the first is higher: 996 s for the first, 707 s for the second.

Going from Cn1cc(C(=O)N2CCC(N(Cc3ccccc3)C3CCOCC3)CC2)cn1 to O=S(=O)(Cc1ccccc1)N1CCC(Cc2nncn2-c2ccccc2)CC1, the RP-LC retention time rises from 573 s to 1080 s.

Going from Cc1ccc2c(=O)c3c([nH]c2c1C)CCN(CC(=O)Nc1ccc2c(c1)OCCO2)C3 to Cc1cccc(NC(=O)CN2C(=O)CCS(=O)(=O)c3ccccc32)c1C, the RP-LC retention time rises from 667 s to 760 s.

First: CN(C)c1ccc2c(c1)CN(C(=O)C1CC=CC1)CCO2
Second: CN(C)c1cccc(C(=O)N2CCc3nc[nH]c3C2)c1
The RP-LC retention time of the first is higher: 610 s for the first, 578 s for the second.

Compared with Cc1cc(NC(=O)Cn2c(=O)n(C(C)C)c3ccc(-c4noc(C)n4)cc32)no1, CCOC(=O)c1cnc2nc(C)ccc2c1Nc1ccc(C)c(F)c1 is lower in RP-LC retention time: 755 s for the first, 736 s for the second.

Compared with O=C(Cn1c(C2CCCO2)nc2ccccc21)NCc1cccs1 (centres undefined), O=C(Cc1cccs1)N1CCc2c([nH]c3ccccc23)C1c1ccccc1 (centres undefined) is higher in RP-LC retention time: 615 s for the first, 1130 s for the second.

Going from Cc1cc(N(C)C)n2nc(CN3CCN(c4ccccc4Cl)CC3)nc2n1 to CCCN1CCN(c2ncc3c(n2)CCN(Cc2cccc(OC)c2)C3)CC1, the RP-LC retention time rises from 627 s to 1120 s.

First: CC(C)(C)C(=O)Nc1ccc(N2CCN(CC(=O)N3CCCC3)CC2)cc1C(=O)O
Second: CCCCC(=O)Nc1ccc2nc(N3CCN(CCC#N)CC3)cc(C(=O)O)c2c1
The RP-LC retention time of the first is higher: 573 s for the first, 570 s for the second.

Compared with Cc1nc(-c2cc(S(=O)(=O)Nc3cccc(Br)c3)c(C)s2)cs1, CC(C)c1ccc(NC(=O)C2CC(=O)N(CCc3c[nH]c4ccc(F)cc34)C2)cc1 (centres undefined) is lower in RP-LC retention time: 1050 s for the first, 929 s for the second.

First: CN(Cc1ccco1)C(=O)C1CCCN(c2nc3cccnc3s2)C1 (centres undefined)
Second: O=c1[nH]c2sc3c(c2c(=O)n1-c1ccccc1)CCCC3
The RP-LC retention time of the first is lower: 745 s for the first, 772 s for the second.

Work on COCc1nc(-c2ccc(OC3CCN(Cc4ccc(C(F)(F)F)cc4)C3)cc2)no1 (centres undefined) yielded an RP-LC retention time of 751 s.

Source: the METLIN SMRT retention time set (Domingo-Almenara et al. 2019)
